# Patent publication EP4678638A1, “NEW E3 UBIQUITIN LIGASE LIGAND, PROTEIN DEGRADATION AGENT AND USE THEREOF” (priority 2023, dated 2024)
# Legend:
# [1] = target: T1, human Cereblon WT GST-tagged protein (Homo sapiens, UniProt Q96SW2); assay: CRBN binding, HTRF (CEREBLON BINDING kit); details: Table II-2, CRBN binding screening, HTRF
# T1 construct: purchased CISBIO 64BDCRBNPEH
# Outline: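 After 3 h at room temperature, emission at 665 and 620 nm was measured in a homogeneous time-resolved fluorescence format. Compounds competed with a Thalidomide-Re probe for GST-tagged wild-type human CRBN, which was labelled with a Eu anti-GST antibody.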
# WEE1 = target: T2, WEE1 (Homo sapiens, UniProt P30291+Q96SW2); assay: Western blot degradation of WEE1 (hPBMC); assay type: cell-based; details: Table D16
# T2 construct: evaluate the effects of the compounds of the present disclosure on the expression of target proteins in cells; endogenous in cells; host or cells: hPBMC
# T2 sequence (P30291 whole entry): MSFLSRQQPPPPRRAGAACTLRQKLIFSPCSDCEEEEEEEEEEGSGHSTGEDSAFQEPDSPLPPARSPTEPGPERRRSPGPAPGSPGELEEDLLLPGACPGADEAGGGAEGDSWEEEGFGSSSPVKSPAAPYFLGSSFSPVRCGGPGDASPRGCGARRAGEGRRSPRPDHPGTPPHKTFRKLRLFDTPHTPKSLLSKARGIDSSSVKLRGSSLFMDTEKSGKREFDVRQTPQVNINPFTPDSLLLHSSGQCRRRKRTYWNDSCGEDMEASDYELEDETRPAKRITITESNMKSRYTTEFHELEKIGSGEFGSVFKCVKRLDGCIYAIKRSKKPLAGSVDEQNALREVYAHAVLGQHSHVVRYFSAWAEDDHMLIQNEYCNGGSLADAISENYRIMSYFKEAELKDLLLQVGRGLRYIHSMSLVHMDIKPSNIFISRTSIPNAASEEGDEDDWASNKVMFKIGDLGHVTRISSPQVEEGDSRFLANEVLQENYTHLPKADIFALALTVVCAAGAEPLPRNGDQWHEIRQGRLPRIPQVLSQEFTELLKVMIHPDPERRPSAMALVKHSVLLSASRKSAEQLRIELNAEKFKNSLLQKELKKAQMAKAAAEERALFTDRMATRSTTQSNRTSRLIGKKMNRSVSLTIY
# T2 sequence (Q96SW2 whole entry): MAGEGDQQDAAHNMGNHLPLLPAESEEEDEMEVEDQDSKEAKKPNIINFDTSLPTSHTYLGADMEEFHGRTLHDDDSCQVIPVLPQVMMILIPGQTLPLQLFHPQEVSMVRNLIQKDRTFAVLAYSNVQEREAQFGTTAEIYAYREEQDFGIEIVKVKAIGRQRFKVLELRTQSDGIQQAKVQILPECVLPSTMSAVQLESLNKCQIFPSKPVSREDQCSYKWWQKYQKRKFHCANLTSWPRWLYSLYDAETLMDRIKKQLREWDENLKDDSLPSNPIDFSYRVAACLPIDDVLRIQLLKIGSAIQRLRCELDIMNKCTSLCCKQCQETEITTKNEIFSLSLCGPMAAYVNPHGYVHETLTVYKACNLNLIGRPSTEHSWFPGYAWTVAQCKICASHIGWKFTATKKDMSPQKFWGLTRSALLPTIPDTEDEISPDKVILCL
# T2 sequence (Q16531 whole entry partner): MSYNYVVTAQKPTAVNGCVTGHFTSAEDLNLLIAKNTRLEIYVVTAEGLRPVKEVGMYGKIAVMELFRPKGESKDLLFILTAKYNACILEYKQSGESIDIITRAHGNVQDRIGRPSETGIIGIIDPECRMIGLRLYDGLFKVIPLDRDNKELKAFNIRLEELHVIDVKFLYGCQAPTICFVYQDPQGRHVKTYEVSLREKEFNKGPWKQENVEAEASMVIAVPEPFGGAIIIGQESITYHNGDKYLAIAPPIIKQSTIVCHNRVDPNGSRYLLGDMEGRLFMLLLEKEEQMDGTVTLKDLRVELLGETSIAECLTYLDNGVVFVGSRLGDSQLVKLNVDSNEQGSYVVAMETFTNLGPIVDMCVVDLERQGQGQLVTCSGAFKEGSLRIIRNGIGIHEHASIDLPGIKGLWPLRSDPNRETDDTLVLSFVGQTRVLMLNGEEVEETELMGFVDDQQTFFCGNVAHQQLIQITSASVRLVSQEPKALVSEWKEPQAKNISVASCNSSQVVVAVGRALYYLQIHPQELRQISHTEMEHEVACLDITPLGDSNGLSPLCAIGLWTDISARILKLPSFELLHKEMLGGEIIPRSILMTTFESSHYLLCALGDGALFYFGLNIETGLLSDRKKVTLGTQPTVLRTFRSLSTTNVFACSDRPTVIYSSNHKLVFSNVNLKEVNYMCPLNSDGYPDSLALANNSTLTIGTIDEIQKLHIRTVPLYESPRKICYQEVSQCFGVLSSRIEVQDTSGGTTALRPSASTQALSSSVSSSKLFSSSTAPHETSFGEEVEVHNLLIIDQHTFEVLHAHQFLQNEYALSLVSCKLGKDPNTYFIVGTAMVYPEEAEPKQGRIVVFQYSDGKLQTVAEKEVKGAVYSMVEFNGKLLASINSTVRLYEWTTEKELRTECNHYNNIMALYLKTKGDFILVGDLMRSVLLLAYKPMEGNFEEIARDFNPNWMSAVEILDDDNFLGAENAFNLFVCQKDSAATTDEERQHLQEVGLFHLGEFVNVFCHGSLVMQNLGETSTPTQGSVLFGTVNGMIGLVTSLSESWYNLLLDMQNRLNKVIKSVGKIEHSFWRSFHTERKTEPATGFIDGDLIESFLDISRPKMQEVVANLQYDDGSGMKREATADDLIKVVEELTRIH
# Experimental: (§1) Conventional Western blot assay was performed to evaluate the effects of the compounds of the present disclosure on the expression of target proteins in cells.
# (§2) (1) Cell Seeding and Protein Harvesting: The selected cells were processed according to the cell seeding procedure and protein harvesting procedure in Table III-2. Table III-2 Cell Seeding and Protein Harvesting Procedures
# (§3) (2) To the collected supernatant, 5X SDS sample loading buffer was added, followed by denaturation at 95°C for 5 minutes. The denatured samples were then separated by SDS-PAGE electrophoresis on a polyacrylamide gel. Proteins were transferred to a nitrocellulose membrane (0.45 µm NC membrane), blocked with blocking buffer at room temperature for 1 hour, and subjected to antibody incubation and development procedures according to the antibody manufacturer's instructions (Cell Signaling Technology).
# (§4) Half-Maximal Degradation Concentration value (the drug concentration required for degrading proteins by 50%, abbreviated as DC50) reads method: comparing the grayscale values of Western blot bands from drug-treated samples with those from blank DMSO-treated controls, and identifying the drug concentration range at which the grayscale value is half that of the DMSO-treated control bands.
# (§5) DC50 values can be calculated using ImageJ software to measure grayscale values of Western blot bands from drug-treated samples. The concentration-response curve is fitted to estimate the drug concentration corresponding to half the grayscale value.
# (§6) Target protein remaining (%) refers to the percentage of target protein remaining in hPBMC cells after treatment with protein degrader compounds.
# (§7) Calculation method for target protein remaining (%): Use ImageJ software to measure grayscale values of Western blot bands from drug (protein degrader)-treated samples. The grayscale value of drug-treated bands is divided by that of internal control protein bands, and the resulting quotient is normalized to obtain the relative percentage of remaining target protein after protein degrader treatment.
# (§8) Target protein degradation rate (%) = 100% - target protein remaining (%).
# CK1a = target: T3, CK1a (Homo sapiens, UniProt P48729+Q96SW2); assay: Western blot degradation of CK1a (hPBMC); assay type: cell-based; details: Table D16
# T3 construct: evaluate the effects of the compounds of the present disclosure on the expression of target proteins in cells; endogenous in cells; host or cells: hPBMC
# Experimental: as §1, §2, §3, §4, §5, §6, §7, §8
# IKZF1 = target: T4, IKZF1 (Homo sapiens, UniProt Q13422+Q96SW2); assay: Western blot degradation of IKZF1 (hPBMC); assay type: cell-based; details: Table D16
# T4 construct: evaluate the effects of the compounds of the present disclosure on the expression of target proteins in cells; endogenous in cells; host or cells: hPBMC
# T4 sequence (Q13422 whole entry): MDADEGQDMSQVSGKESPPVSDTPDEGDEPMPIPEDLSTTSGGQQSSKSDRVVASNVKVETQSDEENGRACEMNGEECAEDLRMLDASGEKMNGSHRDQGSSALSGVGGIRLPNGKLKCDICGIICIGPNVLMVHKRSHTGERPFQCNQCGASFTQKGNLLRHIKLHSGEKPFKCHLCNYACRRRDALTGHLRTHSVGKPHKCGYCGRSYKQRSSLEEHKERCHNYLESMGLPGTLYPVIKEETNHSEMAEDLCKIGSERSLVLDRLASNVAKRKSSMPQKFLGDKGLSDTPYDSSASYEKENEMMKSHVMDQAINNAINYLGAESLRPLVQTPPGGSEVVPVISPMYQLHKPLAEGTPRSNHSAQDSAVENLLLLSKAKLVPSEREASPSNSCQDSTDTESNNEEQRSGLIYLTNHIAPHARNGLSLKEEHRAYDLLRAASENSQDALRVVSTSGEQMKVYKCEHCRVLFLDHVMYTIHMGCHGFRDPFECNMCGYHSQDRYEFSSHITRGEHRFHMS
# T4 sequence (Q96SW2 whole entry): as the sequence (Q96SW2 whole entry) above
# T4 sequence (Q16531 whole entry partner): as the sequence (Q16531 whole entry partner) above
# Experimental: as §1, §2, §3, §4, §5, §6, §7, §8
# GSPT1 = target: T5, GSPT1 (Homo sapiens, UniProt P15170+Q96SW2); assay: Western blot degradation of GSPT1 (hPBMC); assay type: cell-based; details: Table D16
# T5 construct: evaluate the effects of the compounds of the present disclosure on the expression of target proteins in cells; endogenous in cells; host or cells: hPBMC
# T5 sequence (P15170 whole entry): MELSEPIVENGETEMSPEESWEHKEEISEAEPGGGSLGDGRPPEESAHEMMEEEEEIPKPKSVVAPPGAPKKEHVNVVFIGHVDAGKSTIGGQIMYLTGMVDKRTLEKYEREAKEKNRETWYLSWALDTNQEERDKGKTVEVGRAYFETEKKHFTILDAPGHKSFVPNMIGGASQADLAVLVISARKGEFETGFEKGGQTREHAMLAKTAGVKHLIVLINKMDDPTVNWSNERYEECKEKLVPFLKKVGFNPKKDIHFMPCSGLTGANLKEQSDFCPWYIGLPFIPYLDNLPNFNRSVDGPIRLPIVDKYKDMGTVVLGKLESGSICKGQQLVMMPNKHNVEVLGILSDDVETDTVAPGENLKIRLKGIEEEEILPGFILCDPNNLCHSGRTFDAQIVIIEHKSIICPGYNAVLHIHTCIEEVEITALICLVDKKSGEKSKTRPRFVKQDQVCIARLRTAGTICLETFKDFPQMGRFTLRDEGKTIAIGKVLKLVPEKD
# T5 sequence (Q96SW2 whole entry): as the sequence (Q96SW2 whole entry) above
# T5 sequence (Q16531 whole entry partner): as the sequence (Q16531 whole entry partner) above
# Experimental: as §1, §2, §3, §4, §5, §6, §7, §8
# IKZF3 = target: T6, IKZF3 (Homo sapiens, UniProt Q96SW2+Q9UKT9); assay: Western blot degradation of IKZF3 (hPBMC); assay type: cell-based; details: Table D16
# T6 construct: evaluate the effects of the compounds of the present disclosure on the expression of target proteins in cells; endogenous in cells; host or cells: hPBMC
# T6 sequence (Q9UKT9 whole entry): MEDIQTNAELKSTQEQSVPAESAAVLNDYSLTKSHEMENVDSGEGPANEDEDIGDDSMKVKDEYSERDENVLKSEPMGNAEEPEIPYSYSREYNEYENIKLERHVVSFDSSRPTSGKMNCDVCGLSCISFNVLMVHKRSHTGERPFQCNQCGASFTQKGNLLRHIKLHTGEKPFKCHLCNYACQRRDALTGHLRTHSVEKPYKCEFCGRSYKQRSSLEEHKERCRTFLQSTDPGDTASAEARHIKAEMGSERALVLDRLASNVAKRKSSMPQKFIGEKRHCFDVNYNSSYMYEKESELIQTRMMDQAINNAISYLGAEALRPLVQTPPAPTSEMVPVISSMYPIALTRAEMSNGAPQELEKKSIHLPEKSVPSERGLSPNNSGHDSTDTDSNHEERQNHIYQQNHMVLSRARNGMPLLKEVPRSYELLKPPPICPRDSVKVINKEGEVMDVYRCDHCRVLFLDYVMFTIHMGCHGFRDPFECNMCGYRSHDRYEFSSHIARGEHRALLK
# T6 sequence (Q96SW2 whole entry): as the sequence (Q96SW2 whole entry) above
# T6 sequence (Q16531 whole entry partner): as the sequence (Q16531 whole entry partner) above
# Experimental: as §1, §2, §3, §4, §5, §6, §7, §8
# IKZF2 = target: T7, IKZF2 (Homo sapiens, UniProt Q96SW2+Q9UKS7); assay: Western blot degradation of IKZF2 (hPBMC); assay type: cell-based; details: Table D16
# T7 construct: evaluate the effects of the compounds of the present disclosure on the expression of target proteins in cells; endogenous in cells; host or cells: hPBMC
# T7 sequence (Q9UKS7 whole entry): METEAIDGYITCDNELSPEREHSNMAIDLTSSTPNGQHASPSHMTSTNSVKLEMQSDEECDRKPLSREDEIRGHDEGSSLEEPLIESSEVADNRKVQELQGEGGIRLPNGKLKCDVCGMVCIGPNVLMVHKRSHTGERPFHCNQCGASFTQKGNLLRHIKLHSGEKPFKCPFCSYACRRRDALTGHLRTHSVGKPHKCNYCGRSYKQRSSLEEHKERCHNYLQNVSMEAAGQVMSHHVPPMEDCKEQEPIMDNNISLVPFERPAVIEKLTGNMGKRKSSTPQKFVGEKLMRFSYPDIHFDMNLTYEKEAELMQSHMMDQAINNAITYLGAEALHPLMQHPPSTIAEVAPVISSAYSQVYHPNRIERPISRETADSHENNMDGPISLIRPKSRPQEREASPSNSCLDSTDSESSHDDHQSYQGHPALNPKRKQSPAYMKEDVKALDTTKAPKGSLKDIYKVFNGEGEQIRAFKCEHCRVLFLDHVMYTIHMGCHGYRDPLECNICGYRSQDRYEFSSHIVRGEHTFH
# T7 sequence (Q96SW2 whole entry): as the sequence (Q96SW2 whole entry) above
# T7 sequence (Q16531 whole entry partner): as the sequence (Q16531 whole entry partner) above
# Experimental: as §1, §2, §3, §4, §5, §6, §7, §8
# MCF7 = assay: CCK-8 proliferation, MCF7 (MCF-7); assay type: cell-based; details: Homo sapiens, MCF7; CCK-8; read-out: Inhibitory activity (IC50) on tumor cell proliferation, MCF-7
# Outline: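 Cells seeded, then after 24 h treated with 10 concentrations (top 10 µM, 5-fold serial dilution) for a line-specific time at 37°C, 5% CO2. Viability read by CCK-8; IC50 fitted from growth-inhibition curves.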
# T1 sequence (Q96SW2 whole entry): as the sequence (Q96SW2 whole entry) above
SMILES,"inhibition at 0.5 µM ([1]; at 0.5µM, read-out: Inhibition rate (%) at 0.5µM) [%]","inhibition at 2 µM ([1]; at 2 µM, read-out: Inhibition rate (%) at 2 µM) [%]",Degradation of substrate protein WEE1 (substrate protein remaining %) (WEE1),Degradation of substrate protein CKla (substrate protein remaining %) (CK1a),Degradation of substrate protein IKZF1 (substrate protein remaining %) (IKZF1),Degradation of substrate protein GSPT1 (substrate protein remaining %) (GSPT1),Degradation of substrate protein IKZF3 (substrate protein remaining %) (IKZF3),Degradation of substrate protein IKZF2 (substrate protein remaining %) (IKZF2),IC50 (MCF7) [nM]
"O=C1CCC(c2cncc(CCl)c2)C(=O)N1 (stereo not drawn) [GT-06991, 3-(5-(Chloromethyl)pyridin-3-yl)piperidine-2,6-dione]",30 to 40,53 to 60,B (B is defined as substrate protein remaining % > 80%),B (B is defined as substrate protein remaining % > 80%),B (B is defined as substrate protein remaining % > 80%),B (B is defined as substrate protein remaining % > 80%),B (B is defined as substrate protein remaining % > 80%),A (A is defined as 0% ≤ substrate protein remaining % ≤ 80%),
"O=C1CCC(c2cnc(CO)c(F)c2)C(=O)N1 (stereo not drawn) [GT-07049, 3-(5-Fluoro-6-(hydroxymethyl)pyridin-3-yl)piperidine-2,6-dione]",,,B (B is defined as substrate protein remaining % > 80%),A (A is defined as 0% ≤ substrate protein remaining % ≤ 80%),B (B is defined as substrate protein remaining % > 80%),A (A is defined as 0% ≤ substrate protein remaining % ≤ 80%),A (A is defined as 0% ≤ substrate protein remaining % ≤ 80%),A (A is defined as 0% ≤ substrate protein remaining % ≤ 80%),1000 to 5000
"NCc1cncc(N2CCC(=O)NC2=O)c1 [GT-07077, 1-(5-(Aminomethyl)pyridin-3-yl)dihydropyrimidine-2,4(1H,3H)-dione]",,,B (B is defined as substrate protein remaining % > 80%),B (B is defined as substrate protein remaining % > 80%),B (B is defined as substrate protein remaining % > 80%),A (A is defined as 0% ≤ substrate protein remaining % ≤ 80%),B (B is defined as substrate protein remaining % > 80%),B (B is defined as substrate protein remaining % > 80%),1000 to 5000
"O=C1CCC(Nc2cc(CO)ccn2)C(=O)N1 (stereo not drawn) [GT-07366, 3-((4-(Hydroxymethyl)pyridin-2-yl)amino)piperidine-2,6-dione]",,,B (B is defined as substrate protein remaining % > 80%),A (A is defined as 0% ≤ substrate protein remaining % ≤ 80%),B (B is defined as substrate protein remaining % > 80%),A (A is defined as 0% ≤ substrate protein remaining % ≤ 80%),B (B is defined as substrate protein remaining % > 80%),B (B is defined as substrate protein remaining % > 80%),1000 to 5000
"O=C1CCC(c2ncccc2CO)C(=O)N1 (stereo not drawn) [GT-07370, 3-(3-(Hydroxymethyl)pyridin-2-yl)piperidine-2,6-dione]",,,B (B is defined as substrate protein remaining % > 80%),A (A is defined as 0% ≤ substrate protein remaining % ≤ 80%),B (B is defined as substrate protein remaining % > 80%),A (A is defined as 0% ≤ substrate protein remaining % ≤ 80%),B (B is defined as substrate protein remaining % > 80%),B (B is defined as substrate protein remaining % > 80%),1000 to 5000
"O=C1CCC(Nc2ccc(CO)nn2)C(=O)N1 (stereo not drawn) [GT-07803, 3-((6-(Hydroxymethyl)pyridazin-3-yl)amino)piperidine-2,6-dione]",,,B (B is defined as substrate protein remaining % > 80%),B (B is defined as substrate protein remaining % > 80%),A (A is defined as 0% ≤ substrate protein remaining % ≤ 80%),B (B is defined as substrate protein remaining % > 80%),A (A is defined as 0% ≤ substrate protein remaining % ≤ 80%),A (A is defined as 0% ≤ substrate protein remaining % ≤ 80%),
"O=Cc1ccncc1NC1CCC(=O)NC1=O (stereo not drawn) [GT-07804, 3-((2,6-Dioxopiperidin-3-yl)amino)isonicotinaldehyde]",,,B (B is defined as substrate protein remaining % > 80%),B (B is defined as substrate protein remaining % > 80%),B (B is defined as substrate protein remaining % > 80%),B (B is defined as substrate protein remaining % > 80%),A (A is defined as 0% ≤ substrate protein remaining % ≤ 80%),A (A is defined as 0% ≤ substrate protein remaining % ≤ 80%),
"O=Cc1cncnc1NC1CCC(=O)NC1=O (stereo not drawn) [GT-07805, 4-((2,6-Dioxopiperidin-3-yl)amino)pyrimidine-5-carbaldehyde]",,,B (B is defined as substrate protein remaining % > 80%),B (B is defined as substrate protein remaining % > 80%),A (A is defined as 0% ≤ substrate protein remaining % ≤ 80%),B (B is defined as substrate protein remaining % > 80%),A (A is defined as 0% ≤ substrate protein remaining % ≤ 80%),A (A is defined as 0% ≤ substrate protein remaining % ≤ 80%),
"CC(C)(C)[Si](C)(C)OCc1cnc(NC2CCC(=O)NC2=O)nc1 (stereo not drawn) [GT-07808, 3-((5-(((tert-Butyldimethylsilyl)oxy)methyl)pyrimidin-2-yl)amino)piperidine-2,6-dione]",,,A (A is defined as 0% ≤ substrate protein remaining % ≤ 80%),B (B is defined as substrate protein remaining % > 80%),A (A is defined as 0% ≤ substrate protein remaining % ≤ 80%),B (B is defined as substrate protein remaining % > 80%),A (A is defined as 0% ≤ substrate protein remaining % ≤ 80%),A (A is defined as 0% ≤ substrate protein remaining % ≤ 80%),
"O=C1CCC(Nc2ncc(CO)cn2)C(=O)N1 (stereo not drawn) [GT-07809, 3-((5-(Hydroxymethyl)pyrimidin-2-yl)amino)piperidine-2,6-dione]",,,A (A is defined as 0% ≤ substrate protein remaining % ≤ 80%),B (B is defined as substrate protein remaining % > 80%),A (A is defined as 0% ≤ substrate protein remaining % ≤ 80%),B (B is defined as substrate protein remaining % > 80%),A (A is defined as 0% ≤ substrate protein remaining % ≤ 80%),A (A is defined as 0% ≤ substrate protein remaining % ≤ 80%),
